Earlier results on one molecule are cited in patent US7279184B2, “Methods and compositions comprising Ilex” (HerbalScience, LLC, priority 2003, dated 2007).

With `Cn1cnc2c1c(=O)[nH]c(=O)n2C` [Theobromine, 3,7-dimethyl-xanthine], the half-life after ingestion entry is reported as “approximately 6 hours”.
